# Key:
# [1] = system: zymosan A induced plasma leakage; assay: Zymosan A induced plasma leakage in peritoneal fluid (Evans blue), intraperitoneal injection; format: in vivo, mice; conditions: i.p.
# Procedure: The present inventors intraperitoneally injected docosahexaenoyl lysophosphatidylcholine or 17-HPDHA lysophosphatidylcholine (docosahexaenoyl lysophosphatidylcholine oxide) into mice at the concentration of 15˜150 μg/kg. The control group was injected with 50˜100 ul of saline. 2 Hours later, 0.5% Evans Blue dye solution (0.2 ml) was injected through tail vein, followed by intraperitoneal injection of 100 ul of zymosan A (1 mg/ml) dissolved in saline. 30 minutes later, the mice were slightly anesthetized with ether or fluorine, followed by neck dissection. 4 ml of ice-cold PBS was injected into abdominal cavity and peritoneal fluid was recovered by using a plastic syringe, followed by centrifugation (3,000 rpm, 10 minutes). Exudation of Evans blue was measured to evaluate anti-inflammatory effect.
# [2] = system: zymosan A induced plasma leakage; assay: Zymosan A induced plasma leakage in peritoneal fluid (Evans blue), intravenous injection; format: in vivo, mice
# Procedure: To investigate inhibitory effect of docosahexaenoyl lysophosphatidylcholine on peritonitis induced by zymosan, the present inventors induced inflammation in abdominal cavity by injecting zymosan A (saccharomyces cerevisiae) (Sigma-Aldrich Corp, St. Louis, Mo., USA), and then administered lysophosphatidylcholine, followed by evaluation of anti-inflammatory effect. Particularly, SPF mice (6 weeks, male) were adapted for 12 hours and then raised in an animal laboratory at College of Pharmacy under 12/12 hour dark/light cycle. Then, the mice were used for intra-abdominal inflammatory response experiment. First, each experimental group was composed of 5˜10 mice, to which 10˜500 μg/kg of each lysophosphatidylcholine was injected through tail vein. The control group was injected with 50˜100 ul of saline. 30 minutes later, 0.5% Evans blue dye solution (0.2 ml) was injected through tail vein and then 100 ul of zymosan A (1 mg/ml) dissolved in saline was injected into abdominal cavity. 30 minutes after the administration, the mice were anesthetized lightly with ether or fluorine, followed by neck dissection. 4 ml of ice-cold PBS was injected into abdominal cavity and peritoneal fluid was recovered by using a plastic syringe, followed by centrifugation (3,000 rpm, 10 minutes). Supernatant was obtained from the centrifugation, with which exudation of Evans blue was measured by spectrophotometer at 620 nm to evaluate anti-inflammatory effect (Arita M, et al., Proc Natl Acad Sci USA. 2005 May 24; 102(21):7671-6; Takenaka M, et al., Biol Pharm Bull. 2005 July; 28(7):1291-3).
# The present inventors measured time-dependent anti-inflammatory effect (inhibitory effect on zymosan A induced plasma leakage) of each lysophosphatidylcholine. Particularly, docosahexaenoyl lysophosphatidylcholine (50 μg/kg) was injected to mice through tail vein at different time intervals (15 minutes—120 minutes; […], 30 minutes, 60 minutes and 120 minutes before zymosan A administration). After administrating zymosan A ([…]) via intraperitoneal injection, Evans blue was treated, followed by measuring plasma leakage in peritoneal fluid.
# Particularly, docosahexaenoyl lysophosphatidylcholine (50 μg/kg), docosahexaenoic acid (50 μg/kg) or 17-HPDHA lysophosphatidylcholine (17(S)-hydroperoxy-4,7,10,13,15,19-docosahexaenoyl lysophosphatidylcholine) were compared. Soybean LOX-1 (200 units/ml) was added in borax buffer (50 mM, pH 9.0) containing docosahexaenoyl lysophosphatidylcholine (20 uM), followed by reaction at 25° C. for 30 minutes, which was passed through C18 column (2×1 cm) and eluted with methanol (Huang L S, et al., J Agric Food Chem. 2008 Sep. 10; 56(17):7808-14)] (50 μg/kg) was treated to mice 30 minutes before zymosan A injection. 30 minutes later, plasma leakage in peritoneal fluid was measured.
# The present inventors intravenously injected docosahexaenoyl lysophosphatidylethanolamine into mice at the concentration of 15˜150 μg/kg. 30 Min later, 100 ul of zymosan A(1 mg/ml) was treated thereto to induce inflammation in abdominal cavity. After administering 0.5% Evans blue, plasma leakage in peritoneal fluid was measured.
# RAW 264.7 cells = assay: LPS induced NO generation in RAW 264.7 cells (Griess reagent); format: cell-based
# Text: Macrophages are known to play an important role in inflammatory response and host defense. When macrophages are activated by lipopolysaccharide (LPS), a huge amount of NO (nitric oxide) is generated, which is mediated by inducible nitric oxide synthase (iNOS).
# Based on that, the present inventors observed how unsaturated fatty acid containing lysophosphatidylcholine (lysoPC) affected the generation of NO, the inflammation mediator, induced by LPS in RAW 264.7 cells. Particularly, RAW 264.7 cells (5×10^4/well) were pre-cultured with each polyunsaturated lysophosphatidylcholine; linoleoyl lysophosphatidylcholine, arachidonoyl lysophosphatidylcholine and docosahexaenoyl lysophosphatidylcholine [prepared by the co-treatment with diacyl phosphatidylcholine (Avanti Polar Lipids, Alabaster, Ala., USA) and phospholipase A2 (PLA2, Sigma-Aldrich Corp, St. Louis, Mo., USA) (Croset, M. et al., Biochem. J. 2000, 345, 61-67; Adachi, J. et al., Kobe. J. Med. Sci. 2006, 52, 127-140)] (0˜60 uM) at 37° C. for 2 hours. Then, LPS (1 μg/ml) was added thereto, followed by culture for 20 hours under the same conditions as the above. […] Then, OD540 was measured to measure NO generation (Green L C, et al., Anal Biochem. 1982 October; 126(1):131-8).
compound,measurement,setting,value
"17(S)-hydroperoxy-4,7,10,13,15,19-docosahexaenoyl lysophosphatidylcholine [17-HPDHA lysophosphatidylcholine]",inhibitory effect on zymosan induced plasma leakage,"[1]; 15 μg/kg or higher, 2 hours before zymosan A",significant
same,effectiveness in comparison with docosahexaenoyl lysophosphatidylcholine,[1]; 15~150 μg/kg,somewhat more effective than docosahexaenoyl lysophosphatidylcholine
same,"inhibition of zymosan induced plasma leakage, dose dependence",[1]; up to 150 μg/kg,dose-dependent
same,inhibitory effect on plasma leakage (metabolite comparison),"[2]; 50 μg/kg, 30 minutes before zymosan A injection, compared to docosahexaenoyl lysophosphatidylcholine",a greater inhibitory effect
"CCCCC/C=C\C/C=C\CCCCCCCC(=O)OC[C@@H](O)COP(=O)([O-])OCC[N+](C)(C)C [linoleoyl lysophosphatidylcholine, reference compound]",inhibitory effect on NO generation induced by LPS,RAW 264.7 cells; up to 60 uM,did not show any significant inhibitory effect
same,"inhibition of zymosan induced plasma leakage, dose dependence","[2]; i.v., up to 500 μg/kg",did not show inhibitory effect
arachidonoyl lysophosphatidylcholine [reference compound],inhibition of NO generation induced by LPS,RAW 264.7 cells; 60 uM,≤ 20%
same,reduction of zymosan induced plasma leakage,[2]; 50 μg/kg i.v.,reduced plasma leakage significantly
same,reduction of zymosan induced plasma leakage,[2]; 150 μg/kg i.v.,more peculiar
same,reduction of zymosan induced plasma leakage,"[2]; 500 μg/kg i.v., versus 150 μg/kg",this effect was not increased any more
docosahexaenoyl lysophosphatidylethanolamine,inhibitory effect on zymosan A induced plasma leakage,"[2]; i.v., 50 μg/kg or higher, 30 min before zymosan A",significant inhibitory effect
same,"inhibition of zymosan A induced plasma leakage, dose dependence","[2]; i.v., up to 150 μg/kg",inhibited zymosan A induced plasma leakage dose-dependently

# — patent US20100286093A1, “ANTI-INFLAMMATORY COMPOSITION CONTAINING DOCOSAHEXAENOYL LYSOPHOSPHATIDYLAMINE AS AN ACTIVE INGREDIENT” (The Industry & Academic Cooperation in Chungnam National …, priority 2009, published 2010)
